Reference: patent US9023853B2, “Janus kinase 2 (JAK2) inhibitor for the treatment of lupus” (Cephalon, Inc., priority 2010, dated 2015)
Values joined by “and” are separate entries in the source; they are usually repeats but may differ in a detail not shown here. Identical values can stand only once. “Also recorded” adds a separate entry of the source.

Experiments:
Format in all cases: in vivo, mouse
anti-dsDNA antibodies = assay: Serum anti-dsDNA ANA ELISA in NZM mice; details: for A: Anti-dsDNA IgG, MEAN: NZM group mean; for A: Anti-dsDNA IgG: NZM individual mouse; for serum anti-dsDNA ANAs decrease compared to vehicle: NZM mice, over course of disease
Excerpt: The measurement of anti-dsDNA and anti-Smith antigen antibodies was done by an in-house generated custom ELISA assay. Chromatin coated plates were purchased from Inova Diagnostics, Inc. Purified bovine thymus dsDNA (Sigma, St. Louis, […].) or purified bovine Smith antigen (GenWay, San Diego, Calif.) were used as coating antigen for the detection of anti-dsDNA and anti-Smith Ag antibodies respectively. Coated plates were washed with Borate Sulfate Saline (BSS) and blocked with BSS containing 1% Bovine Serum Albumin (BSA) and 0.1% Tween-20 detergent. Standard curves were generated using mouse anti-chromatin antibody (Sigma, 2B1) or 25 week old MRL/lpr serum. Mouse anti-dsDNA antibody (Abcam, Cambridge, Mass.), or mouse anti-Smith antigen antibody (Abcam) were used as standards for each assay. Secondary antibody was purchased from Abcam (goat anti-mouse pAb-HRP), the substrate was purchased from Rockland (Gilbertsville, Pa.) (TMB), and stop reaction buffer was generated using 1 mL of concentrated sulfuric acid into 20 mL of dH2O. Developed plates were read using a Victor-X4 spectrophotometer reading at […] with a reference wavelength of 570 nm. For all ANA ELISA assays, values below the limit of detection set by the lowest point along the standard or set by the manufacturer were considered out of range and were not estimated, but assumed the lowest point along the standard curve for that particular assay.
(§1) Age mated, female, NZM or NZW/LacJ, mice were matured for the study of lupus nephritis for a total of 7 months or 210 days at which time urine was collected for proteinuria detection. Mice with 0.5-1.0 mg/ml of urine protein as determined by an optical density-based total protein precipitation assay and cross-checked for 30-300 mg/dl of protein as determined by a stick assay were considered proteinuria positive and selected for study entry. Groups were normalized to contain a Gaussian distribution of proteinuria positive animals (i.e., ⅓ low proteinuria, ⅓ medium, ⅓ high) then randomized between groups before ear marking and taking baseline measures including urine and serum collections. A total of five mice from the total population were randomly selected for baseline kidney histology evaluation. Treatments and tests for each group are as described in FIG. 12. Briefly, with a minimum of 10 mice per group, COMPOUND A was administered at 100 mg/kg or 55 mg/kg, both twice a day and orally. […] Vehicle included 3% DMSO, 10% Solutol and 87% PBS. […] End-stage lupus nephritis was evaluated by histopathology and scored by a board certified pathologist for the assessment of total renal damage in diseased animals using the scoring method described by Smith et al (Smith, Dong et al. 2007). […] Day-98 or “end of treatment/study” represents 310 days of age for the NZM animals.

NZM mice [1] = assay: Renal histopathology kidney IC-GN scoring in NZM mice; details: for D: Glomerular Sclerosis / E: Interstitial Infiltration / G: Interstitial Fibrosis / B: Glomerular Cellularity / C: Glomerular Necrosis / F: Tubular Atrophy / H: Vasculitis: NZM individual mouse; for Glomerular Cellularity / Glomerular Necrosis / Glomerulosclerosis / Interstitial Fibrosis / Interstitial Infiltration / Tubular Atrophy / Vasculitis: NZM kidney score (grade 0-5), mean; for glomerular cellularity decrease compared to vehicle: p<0.001
Procedure: For histological analyses, the left kidney and lung (NZM model only) from each animal was removed and fixed in 10% buffered neutral 10% formalin (EMD) for 48 hours on an orbital rocker at 25° C., then washed overnight with running dH2O and stored in 70% ethanol at 4° C. until ready to be processed. Kidney stains used for histological analyses included hematoxylin and eosin (H&E), Periodic Acid Schiff (PAS) and Trichrome stains (Wistar Institute, Philadelphia, Pa.). All 3 stained sections were used by the pathologist for scoring purposes. All histological scoring was performed blinded and by an independent board certified veterinary medical pathologist (Julie Engiles, VMD, DACVP; University of Pennsylvania). Multiple stains were used to determine score values. Images in FIGS. 8, 19 and 20 show worst affected area of section selected blindly by the pathologist.
Kidney IC-GN Scoring Method (Smith, Dong et al. 2007):
1. […]
2. […]
3. […]
4. […]
5. […]
6. […]
7. […]
Also considered effacement of the glomerular tuft by PAS positive, Trichrome negative material necrosis. • Glomerular sclerosis was defined by increased fibroplasia or fibrosis within the glomerular tuft or capsule. […] Pharmacodynamic (PD) Analysis
as §1

NZM mice [2] = assay: Urinalysis total urine protein (proteinuria) in NZM mice; details: for I: Proteinuria, MEAN: NZM group mean; for I: Proteinuria: NZM individual mouse; for total urine protein decrease compared to vehicle: over course of disease
Procedure: Urine samples were acid precipitated for total protein recovery and analysis. Samples for which enough urine remained were used for Uristix® leukouria analysis (MRL/lpr study only). Briefly, a standard protein solution was prepared from normal mouse sera and was used as a standard for mouse urinary protein assay by turbidity. Standard preparation was as follows: 0, 5, 10, 15, 20, 30, 40, and 50 μL of a 4 mg/mL mouse sera standard protein solution as provided in the kit were added in duplicate into two columns. PBS was added to individual wells to adjust the final volume to 50 μL. For urine sample preparation, urine samples were centrifuged at 9880×g for 3 minutes using a tabletop micro-centrifuge. Urine supernatant (1-50 μL) was added in duplicate. PBS was added to adjust the volume to 50 μL total. For the turbidity assay: 25 μL of 0.1 N HCl was added into blank columns and 250 μL of 3% sulfosalicyclic acid into the test columns. The microplate was incubated for 10 minutes at RT and plates were read using an ELISA reader with single beam at 450 nm. For the Uristix® strip assay, strips were laid out and labeled. Twenty microliters of urine were placed onto each test strip square and incubated for at least 30 seconds before the result was recorded. For all total urine analysis plate-based assays, values below the limit of detection set by the lowest point along the standard or set by the manufacturer were considered out of range and were not estimated, but assumed the lowest point along the standard curve for that particular assay.
as §1

[3] = NZM mice, sentence names 55 mg/kg and 100 mg/kg doses, p<0.05

## CN1CCN(c2cccc(Nc3nc4c(-c5ccc(S(C)(=O)=O)cc5)cccn4n3)c2)CC1 [COMPOUND A, [8-(4-methanesulfonyl-phenyl)-[1,2,4]triazolo[1,5-a]pyridin-2-yl]-[3-(4-methyl-piperazin-1-yl)-phenyl]-amine]
anti-dsDNA antibodies; CMPD A 55 mpk bid
  A: Anti-dsDNA IgG, MEAN: 16.4
anti-dsDNA antibodies; CMPD A 100 mpk bid
  A: Anti-dsDNA IgG, MEAN: 14.4
anti-dsDNA antibodies; CMPD A 55 mpk bid, 55 mg/kg
  A: Anti-dsDNA IgG: 20.6 and 39.4 and 9.4 and 12.6 and 12.7 and 7.5 and 15.2 and 16.7 and 19.3 and 10.8
anti-dsDNA antibodies; CMPD A 100 mpk bid, 100 mg/kg
  A: Anti-dsDNA IgG: 13.4 and 18.2 and 9.6 and 13.8 and 11.5 and 6.6 and 20.5 and 5.1 and 26.5 and 19.2
anti-dsDNA antibodies; COMPOUND A 55 mg/kg
  serum anti-dsDNA ANAs decrease compared to vehicle: 67.0%
anti-dsDNA antibodies; COMPOUND A 100 mg/kg
  serum anti-dsDNA ANAs decrease compared to vehicle: 73.9%
NZM mice [1]; CMPD A 55 mpk bid
  D: Glomerular Sclerosis: − (‘−’ no disease (1))
  E: Interstitial Infiltration: − (‘−’ no disease (1))
  G: Interstitial Fibrosis: − (‘−’ no disease (1))
NZM mice [1]; CMPD A 55 mpk bid, 55 mg/kg
  B: Glomerular Cellularity: + (‘+’ mild (2)); also recorded: − (‘−’ no disease (1))
  C: Glomerular Necrosis: − (‘−’ no disease (1)); also recorded: + (‘+’ mild (2))
  F: Tubular Atrophy: + (‘+’ mild (2)); also recorded: − (‘−’ no disease (1))
  H: Vasculitis: − (‘−’ no disease (1)); also recorded: + (‘+’ mild (2))
NZM mice [1]; CMPD A 100 mpk bid, 100 mg/kg
  B: Glomerular Cellularity: − (‘−’ no disease (1)); also recorded: + (‘+’ mild (2))
  C: Glomerular Necrosis: − (‘−’ no disease (1)); also recorded: + (‘+’ mild (2)); also recorded: ++ (‘++’ moderate (3))
  D: Glomerular Sclerosis: − (‘−’ no disease (1)); also recorded: ++ (‘++’ moderate (3))
  E: Interstitial Infiltration: − (‘−’ no disease (1)); also recorded: + (‘+’ mild (2))
  F: Tubular Atrophy: − (‘−’ no disease (1)); also recorded: + (‘+’ mild (2))
  G: Interstitial Fibrosis: − (‘−’ no disease (1)); also recorded: + (‘+’ mild (2))
  H: Vasculitis: − (‘−’ no disease (1)); also recorded: + (‘+’ mild (2))
NZM mice [1]; COMPOUND A 55 mg/kg
  Glomerular Cellularity: 1.33
  Glomerular Necrosis: 1.22
  Glomerulosclerosis: 1.00
  Interstitial Fibrosis: 1.0
  Interstitial Infiltration: 1.11
  Tubular Atrophy: 1.22
  Vasculitis: 1.11
NZM mice [1]; COMPOUND A 100 mg/kg
  Glomerular Cellularity: 1.44
  Glomerular Necrosis: 1.44
  Glomerulosclerosis: 1.22
  Interstitial Fibrosis: 1.22
  Interstitial Infiltration: 1.22
  Tubular Atrophy: 1.33
  Vasculitis: 1.44
NZM mice [1]; NZM mice treated with COMPOUND A, FIG. 19
  enlarged glomeruli and leukocytic infiltrates in renal sections: absent
NZM mice [1]; NZM mice, COMPOUND A 55 mg/kg
  glomerular cellularity decrease compared to vehicle: 59.3%
NZM mice [1]; NZM mice, COMPOUND A 100 mg/kg
  glomerular cellularity decrease compared to vehicle: 56.2%
NZM mice [1]; NZM mice, comparable to non-diseased NZW/LacJ age-matched control, FIG. 19
  renal pathologies: decreased renal pathologies
NZM mice [1]; [3]
  interstitial fibrosis decrease compared to vehicle: 58.3%
  vasculitis decrease compared to vehicle: 8.3%
NZM mice [2]; CMPD A 55 mpk bid
  I: Proteinuria, MEAN: 0.56 mg/mL
NZM mice [2]; CMPD A 100 mpk bid
  I: Proteinuria, MEAN: 1.32 mg/mL
NZM mice [2]; CMPD A 55 mpk bid, 55 mg/kg
  I: Proteinuria: 0.41 mg/mL (2×) and 0.50 mg/mL and 0.74 mg/mL and 0.48 mg/mL (2×) and 0.52 mg/mL and 1.11 mg/mL and 0.37 mg/mL and 0.61 mg/mL
NZM mice [2]; CMPD A 100 mpk bid, “0.00” = BQL, 100 mg/kg
  I: Proteinuria: 0.48 mg/mL and 0.55 mg/mL and 0.70 mg/mL and 0.53 mg/mL and 0.44 mg/mL and 0.11 mg/mL and 0.00 mg/mL (3×) and 10.39 mg/mL
NZM mice [2]; NZM mice, COMPOUND A 55 mg/kg
  total urine protein decrease compared to vehicle: 76.25
NZM mice [2]; NZM mice, COMPOUND A 100 mg/kg
  total urine protein decrease compared to vehicle: 81.8%
NZM mice [2]; NZM mice, COMPOUND A treatment, FIG. 17
  urine protein levels relative to age-matched, non-lupus control mice: below the protein levels of age-matched, non-lupus control mice
